The record followed here is paper PMC8269692 (Biochemistry, 2021).

The assay has as its target T1, human macrophage galactose-type lectin (hMGL) extracellular domain (Homo sapiens, UniProt Q8IUN9).
T1 sequence (Q8IUN9 with tags, fused parts or gaps isoform Q8IUN9-2): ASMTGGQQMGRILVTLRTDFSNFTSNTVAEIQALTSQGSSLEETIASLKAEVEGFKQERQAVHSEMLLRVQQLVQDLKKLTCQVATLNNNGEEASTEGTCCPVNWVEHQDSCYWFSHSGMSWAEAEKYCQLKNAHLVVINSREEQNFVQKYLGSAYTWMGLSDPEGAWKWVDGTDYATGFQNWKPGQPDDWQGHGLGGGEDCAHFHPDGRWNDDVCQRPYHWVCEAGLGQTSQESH
Put plainly: ITC titration of ligands into hMGL. The format is binding. Particulars: for KA: one-set-of-sites model.

Where [1] appears, read: ITC, buffered D2O (10 mM HEPES sodium salt, 50 mM NaCl, 2 mM CaCl2, pH 7.4), 25 °C.
The mark [2] stands for this setting: ITC, buffered D2O, pH 7.4, 25 °C.
The mark [3] stands for this setting: ITC, buffered H2O (10 mM HEPES sodium salt, 50 mM NaCl, 2 mM CaCl2, pH 7.4), 25 °C.
The mark [4] stands for this setting: ITC, buffered H2O, pH 7.4, 25 °C.
Setting [5] is: deuterium isotope effect, DIE = H2O – D2O.

As usually defined, the Kd is the concentration at which binding is half-saturated.

The structures appear in SMILES notation.

Regarding `CC(=O)N[C@H]1C(O)O[C@H](CO)[C@H](O)[C@@H]1O` (stereo partly drawn) [GalNAc, N-acetyl-D-galactosamine], under setting [1], the dissociation constant Kd was determined as 7.25 µM and the KA is 13.79 ×10^4 M^–1. Besides, under setting [2], the “n (number of binding sites, stoichiometry)” value came out at 0.97; the ΔG result is “–7.01 kcal mol^–1”; the ΔH result is reported as “–6.81 kcal mol^–1”; the “Δ−(TΔS)” value is reported as “–0.20 kcal mol^–1”. Further, under setting [3], the Kd was determined as 17.7 µM and the KA is recorded as 5.64 ×10^4 M^–1. Under setting [4], the ΔG result was “–6.49 kcal mol^–1”, the ΔH result is given as “–11.30 kcal mol^–1” and the “Δ−(TΔS)” value worked out at 4.81 kcal mol^–1. For the setting “ITC, buffered H2O, pH 7.4, 25 °C, n normalized to active cell concentration of the dissociating trimer”, the “n (number of binding sites, stoichiometry)” value is 0.99. Under setting [5], the ΔΔG was 0.52 kcal mol^–1, the ΔΔH result is on record as “–4.49 kcal mol^–1” and the “Δ−(TΔS)” value was found to be 5.01 kcal mol^–1. The ΔΔH (deuterium isotope effect, DIE = H2O – D2O, listed as free glycan) is recorded as −4.49 kcal mol^–1.
As to `CC(=O)N[C@H]1[C@@H](O[C@H](C)[C@H](N)C(=O)O)O[C@H](CO)[C@H](O)[C@@H]1O` [Thr-Tn], the Kd under setting [3] lay in the range of 16 to 17 µM.
In the case of `CO[C@@H]1O[C@H](CO)[C@@H](O)[C@H](O)[C@H]1O` [methyl β-glucopyranoside], the “affinity for hMGL (result in words)” value (ITC, buffered H2O, 25 °C) is “no indication of a detectable affinity”.
Consider `CO[C@H]1O[C@H](CO)[C@H](O)[C@H](O)[C@H]1NC(C)=O` [α-Me-GalNAc, Methyl N-acetyl-α-D-galactosamine], for which the “affinity relative to β-anomer and GalNAcα1-O-Thr conjugate” value (ITC, buffered H2O, 25 °C) is listed as 2 fold.
